ChEMBL document CHEMBL1614632, “Trend analysis of a database of intravenous pharmacokinetic parameters in humans for 670 drug compounds” (Drug Metab Dispos, 2008)

Key:
clinical [1] = settings: human, in vivo, iv
clinical [2] = settings: human, in vivo, iv, Vdss
clinical [3] = settings: human, in vivo, iv, CL
clinical [4] = settings: human, in vivo, iv; remark: listed apart in the source
clinical [5] = settings: human, in vivo, iv, t1/2

SMILES: CN[C@@H]1C[C@H]2O[C@@](C)([C@@H]1OC)n1c3ccccc3c3c4c(c5c6ccccc6n2c5c31)C(=O)N[C@@H]4O
- fraction unbound (clinical [1]): 0.0022
- Vd (clinical [2]): 0.15 L/kg
- clearance (clinical [3]): 0.0037 mL/min/kg
- MRT (clinical [4]): 680 h
- half-life (clinical [5]): 790 h

SMILES: C#C[C@]1(O)CC[C@H]2[C@@H]3CCc4cc(OS(=O)(=O)O)ccc4[C@H]3CC[C@@]21C
- fraction unbound (clinical [1]): 0.011
- Vd (clinical [2]): 2.3 L/kg
- clearance (clinical [3]): 4.7 mL/min/kg
- MRT (clinical [4]): 8.2 h
- half-life (clinical [5]): 8.4 h

SMILES: COc1cc2c3cc1Oc1cc(ccc1O)C[C@@H]1c4c(cc(OC)c(O)c4Oc4ccc(cc4)C[C@@H]3N(C)CC2)CC[N+]1(C)C.[Cl-]
- fraction unbound (clinical [1]): 0.58
- Vd (clinical [2]): 0.45 L/kg
- clearance (clinical [3]): 3.4 mL/min/kg
- MRT (clinical [4]): 2.2 h
- half-life (clinical [5]): 2 h

SMILES: CO/N=C(\C(=O)N[C@@H]1C(=O)N2C(C(=O)O)=C(C)CS[C@H]12)c1csc(N)n1
- fraction unbound (clinical [1]): 0.78
- Vd (clinical [2]): 0.28 L/kg
- clearance (clinical [3]): 1.9 mL/min/kg
- MRT (clinical [4]): 2.5 h
- half-life (clinical [5]): 2.1 h

SMILES: C=C[C@@]1(O)C[N+]2(C)CC[C@H]1C[C@@H]2[C@@H](O)c1ccnc2ccc(OC)cc12
- fraction unbound (clinical [1]): 0.47
- Vd (clinical [2]): 6.8 L/kg
- clearance (clinical [3]): 12 mL/min/kg
- MRT (clinical [4]): 9.4 h
- half-life (clinical [5]): 6.7 h

SMILES: CCCCCCCCCC(=O)N[C@@H](Cc1c[nH]c2ccccc12)C(=O)N[C@H](CC(N)=O)C(=O)N[C@@H](CC(=O)O)C(=O)N[C@@H]1C(=O)NCC(=O)N[C@@H](CCCN)C(=O)N[C@@H](CC(=O)O)C(=O)N[C@H](C)C(=O)N[C@@H](CC(=O)O)C(=O)NCC(=O)N[C@H](CO)C(=O)N[C@@H]([C@H](C)CC(=O)O)C(=O)N[C@@H](CC(=O)c2ccccc2N)C(=O)O[C@@H]1C
- fraction unbound (clinical [1]): 0.083
- Vd (clinical [2]): 0.088 L/kg
- clearance (clinical [3]): 0.16 mL/min/kg
- MRT (clinical [4]): 9.2 h
- half-life (clinical [5]): 8.1 h

SMILES: Nc1nc(N)c2nc(-c3ccccc3)c(N)nc2n1
- fraction unbound (clinical [1]): 0.42
- Vd (clinical [2]): 13 L/kg
- clearance (clinical [3]): 63 mL/min/kg
- MRT (clinical [4]): 3.4 h
- half-life (clinical [5]): 4.3 h

SMILES: C=C1CC[C@@]2(O)[C@H]3Cc4ccc(O)c5c4[C@@]2(CCN3CC2CC2)[C@H]1O5
- fraction unbound (clinical [1]): 0.65
- Vd (clinical [2]): 8.2 L/kg
- clearance (clinical [3]): 15 mL/min/kg
- MRT (clinical [4]): 9.1 h
- half-life (clinical [5]): 8.8 h

SMILES: CN(C)CCCN1c2ccccc2CCc2cc(O)ccc21 [2-HYDROXYIMIPRAMINE]
- fraction unbound (clinical [1]): 0.36
- Vd (clinical [2]): 6.6 L/kg
- clearance (clinical [3]): 9.2 mL/min/kg
- MRT (clinical [4]): 12 h
- half-life (clinical [5]): 10 h

SMILES: CC[C@@]1(O)C(=O)OCc2c1cc1n(c2=O)Cc2cc3c(N)cccc3nc2-1 [9-AMINOCAMPTOTHECIN]
- fraction unbound (clinical [1]): 0.003
- Vd (clinical [2]): 2.2 L/kg
- clearance (clinical [3]): 6.5 mL/min/kg
- MRT (clinical [4]): 5.6 h
- half-life (clinical [5]): 7 h

SMILES: Nc1nc(NC2CC2)c2ncn([C@H]3C=C[C@@H](CO)C3)c2n1 [ABACAVIR]
- fraction unbound (clinical [1]): 0.5
- Vd (clinical [2]): 0.84 L/kg
- clearance (clinical [3]): 13 mL/min/kg
- MRT (clinical [4]): 1.1 h
- half-life (clinical [5]): 1 h

SMILES: CCN(CC)CCNC(=O)c1ccc(NC(C)=O)cc1 [ACECAINIDE]
- fraction unbound (clinical [1]): 0.9
- Vd (clinical [2]): 1.9 L/kg
- clearance (clinical [3]): 4 mL/min/kg
- MRT (clinical [4]): 7.9 h
- half-life (clinical [5]): 6.4 h

SMILES: CC(=O)Nc1nnc(S(N)(=O)=O)s1 [ACETAZOLAMIDE]
- fraction unbound (clinical [1]): 0.04
- Vd (clinical [2]): 0.37 L/kg
- clearance (clinical [3]): 0.65 mL/min/kg
- MRT (clinical [4]): 9.5 h
- half-life (clinical [5]): 13 h

SMILES: CC(=O)N[C@@H](CS)C(=O)O [ACETYLCYSTEINE]
- fraction unbound (clinical [1]): 0.17
- Vd (clinical [2]): 0.55 L/kg
- clearance (clinical [3]): 3.1 mL/min/kg
- MRT (clinical [4]): 3 h
- half-life (clinical [5]): 5.5 h

SMILES: CN(C)CCc1c[nH]c2ccc(CS(=O)(=O)N3CCCC3)cc12 [ALMOTRIPTAN]
- fraction unbound (clinical [1]): 0.6
- Vd (clinical [2]): 2.2 L/kg
- clearance (clinical [3]): 8.9 mL/min/kg
- MRT (clinical [4]): 4.2 h
- half-life (clinical [5]): 3.4 h

SMILES: CN1CC[C@H](c2c(O)cc(O)c3c(=O)cc(-c4ccccc4Cl)oc23)[C@H](O)C1 [ALVOCIDIB]
- fraction unbound (clinical [1]): 0.06
- Vd (clinical [2]): 1.5 L/kg
- clearance (clinical [3]): 6.1 mL/min/kg
- MRT (clinical [4]): 4 h
- half-life (clinical [5]): 5.2 h

SMILES: NCC[C@H](O)C(=O)N[C@@H]1C[C@H](N)[C@@H](O[C@H]2O[C@H](CN)[C@@H](O)[C@H](O)[C@H]2O)[C@H](O)[C@H]1O[C@H]1O[C@H](CO)[C@@H](O)[C@H](N)[C@H]1O [AMIKACIN]
- fraction unbound (clinical [1]): 0.88
- Vd (clinical [2]): 0.16 L/kg
- clearance (clinical [3]): 1.1 mL/min/kg
- MRT (clinical [4]): 2.4 h
- half-life (clinical [5]): 2.4 h

SMILES: NCCCCCC(=O)O [AMINOCAPROIC ACID]
- fraction unbound (clinical [1]): 0.92
- Vd (clinical [2]): 0.39 L/kg
- clearance (clinical [3]): 2.5 mL/min/kg
- MRT (clinical [4]): 2.6 h
- half-life (clinical [5]): 4.9 h

SMILES: COc1cc(NS(C)(=O)=O)ccc1Nc1c2ccccc2nc2ccccc12 [AMSACRINE]
- fraction unbound (clinical [1]): 0.029
- Vd (clinical [2]): 1.6 L/kg
- clearance (clinical [3]): 4.3 mL/min/kg
- MRT (clinical [4]): 6.2 h
- half-life (clinical [5]): 4.7 h

SMILES: CCCC1C(=O)N2C(N(C)C)=Nc3ccc(C)cc3N2C1=O (stereo not given) [APAZONE]
- fraction unbound (clinical [1]): 0.004
- Vd (clinical [2]): 0.12 L/kg
- clearance (clinical [3]): 0.14 mL/min/kg
- MRT (clinical [4]): 14 h
- half-life (clinical [5]): 17 h

SMILES: O=C1CCc2ccc(OCCCCN3CCN(c4cccc(Cl)c4Cl)CC3)cc2N1 [ARIPIPRAZOLE]
- fraction unbound (clinical [1]): 0.01
- Vd (clinical [2]): 4.9 L/kg
- clearance (clinical [3]): 0.83 mL/min/kg
- MRT (clinical [4]): 98 h
- half-life (clinical [5]): 75 h

SMILES: CC(=O)Oc1ccccc1C(=O)O [ASPIRIN]
- fraction unbound (clinical [1]): 0.68
- Vd (clinical [2]): 0.22 L/kg
- clearance (clinical [3]): 12 mL/min/kg
- MRT (clinical [4]): 0.3 h
- half-life (clinical [5]): 0.26 h

SMILES: CNC(=O)c1cccc2c(Nc3ccc(NS(C)(=O)=O)cc3OC)c3cccc(C)c3nc12 [ASULACRINE]
- fraction unbound (clinical [1]): 0.0011
- Vd (clinical [2]): 0.3 L/kg
- clearance (clinical [3]): 2.6 mL/min/kg
- MRT (clinical [4]): 1.9 h
- half-life (clinical [5]): 2.4 h

SMILES: O=C1C(O)=C([C@H]2CC[C@H](c3ccc(Cl)cc3)CC2)C(=O)c2ccccc21 [ATOVAQUONE]
- fraction unbound (clinical [1]): 0.001
- Vd (clinical [2]): 0.6 L/kg
- clearance (clinical [3]): 0.15 mL/min/kg
- MRT (clinical [4]): 67 h
- half-life (clinical [5]): 63 h

SMILES: CN1CCN(CCCCN2C(=O)CN(/N=C/c3ccc(-c4ccc(Cl)cc4)o3)C2=O)CC1 [AZIMILIDE]
- fraction unbound (clinical [1]): 0.06
- Vd (clinical [2]): 13 L/kg
- clearance (clinical [3]): 2.4 mL/min/kg
- MRT (clinical [4]): 100 h
- half-life (clinical [5]): 79 h

SMILES: CC1(C)S[C@@H]2[C@H](NC(=O)[C@H](NC(=O)N3CCNC3=O)c3ccccc3)C(=O)N2[C@H]1C(=O)O [AZLOCILLIN]
- fraction unbound (clinical [1]): 0.65
- Vd (clinical [2]): 0.26 L/kg
- clearance (clinical [3]): 2.5 mL/min/kg
- MRT (clinical [4]): 1.7 h
- half-life (clinical [5]): 1.2 h

SMILES: CCC(=O)OCC(=O)[C@@]1(OC(=O)CC)[C@@H](C)C[C@H]2[C@@H]3CCC4=CC(=O)C=C[C@]4(C)[C@@]3(Cl)[C@@H](O)C[C@@]21C [BECLOMETHASONE DIPROPIONATE]
- fraction unbound (clinical [1]): 0.13
- Vd (clinical [2]): 0.29 L/kg
- clearance (clinical [3]): 36 mL/min/kg
- MRT (clinical [4]): 0.1 h
- half-life (clinical [5]): 0.5 h

SMILES: COc1ccc(CCNCC(O)COc2cccc(C)c2)cc1OC (stereo not given) [BEVANTOLOL]
- fraction unbound (clinical [1]): 0.015
- Vd (clinical [2]): 0.67 L/kg
- clearance (clinical [3]): 5.5 mL/min/kg
- MRT (clinical [4]): 2 h
- half-life (clinical [5]): 1.9 h

SMILES: C[C@@H](O)[C@H]1C(=O)N2C(C(=O)[O-])=C(SC3Cn4cnc[n+]4C3)[C@H](C)[C@H]12 (stereo not given in full) [BIAPENEM]
- fraction unbound (clinical [1]): 0.92
- Vd (clinical [2]): 0.2 L/kg
- clearance (clinical [3]): 2.5 mL/min/kg
- MRT (clinical [4]): 1.3 h
- half-life (clinical [5]): 1.1 h

SMILES: COc1ccccc1Oc1c(NS(=O)(=O)c2ccc(C(C)(C)C)cc2)nc(-c2ncccn2)nc1OCCO [BOSENTAN]
- fraction unbound (clinical [1]): 0.037
- Vd (clinical [2]): 0.29 L/kg
- clearance (clinical [3]): 2.1 mL/min/kg
- MRT (clinical [4]): 2.3 h
- half-life (clinical [5]): 4.1 h

SMILES: Nc1c(CC(=O)O)cccc1C(=O)c1ccc(Br)cc1 [BROMFENAC]
- fraction unbound (clinical [1]): 0.0011
- Vd (clinical [2]): 0.11 L/kg
- clearance (clinical [3]): 1.3 mL/min/kg
- MRT (clinical [4]): 1.5 h
- half-life (clinical [5]): 2.6 h

SMILES: CCN(CC)CCNC(=O)c1cc(Br)c(N)cc1OC [BROMOPRIDE]
- fraction unbound (clinical [1]): 0.6
- Vd (clinical [2]): 3.1 L/kg
- clearance (clinical [3]): 13 mL/min/kg
- MRT (clinical [4]): 4 h
- half-life (clinical [5]): 2.9 h

SMILES: Cc1nnc2n1-c1sc(Br)cc1C(c1ccccc1Cl)=NC2 [BROTIZOLAM]
- fraction unbound (clinical [1]): 0.092
- Vd (clinical [2]): 0.75 L/kg
- clearance (clinical [3]): 2 mL/min/kg
- MRT (clinical [4]): 6 h
- half-life (clinical [5]): 4.8 h
